What is called IC50 is the concentration that gives 50% inhibition.

Each structure is given as a SMILES string.

T1 sequence (Q9NUW8 whole entry): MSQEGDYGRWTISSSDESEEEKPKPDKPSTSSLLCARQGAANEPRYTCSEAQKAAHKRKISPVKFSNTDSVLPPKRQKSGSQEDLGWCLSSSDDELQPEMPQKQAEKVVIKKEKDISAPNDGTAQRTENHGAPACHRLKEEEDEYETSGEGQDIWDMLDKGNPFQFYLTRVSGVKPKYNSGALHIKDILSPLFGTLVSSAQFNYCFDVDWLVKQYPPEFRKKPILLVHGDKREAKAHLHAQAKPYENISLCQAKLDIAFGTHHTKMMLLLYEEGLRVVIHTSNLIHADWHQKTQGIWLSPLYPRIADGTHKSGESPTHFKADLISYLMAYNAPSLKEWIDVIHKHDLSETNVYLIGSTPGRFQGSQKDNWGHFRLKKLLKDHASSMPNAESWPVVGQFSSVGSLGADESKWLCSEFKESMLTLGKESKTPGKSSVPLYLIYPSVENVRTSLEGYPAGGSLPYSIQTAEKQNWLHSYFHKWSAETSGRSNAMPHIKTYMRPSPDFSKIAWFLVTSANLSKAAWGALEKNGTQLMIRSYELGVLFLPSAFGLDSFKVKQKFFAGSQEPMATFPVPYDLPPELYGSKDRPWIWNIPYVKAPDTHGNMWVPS

The first assay has as its target T1, Human recombinant TDP1 (Homo sapiens, UniProt Q9NUW8).
T1 construct: made in house
The assay is described as follows: Real-time oligonucleotide biosensor assay of TDP1 activity. As to conditions: 1.5 nM TDP1, 50 nM biosensor, 26 °C, at least three experiments. In kind it is biochemical. How it is done: The inhibiting activity of the compounds against TDP1 was investigated using a real-time oligonucleotide biosensor assay.
The biosensor (5′-[FAM] AAC GTC AGGGTC TTC C [BHQ]-3′) was synthesized in the Laboratory of Nucleic Acid Chemistry at the Institute of Chemical Biology and Fundamental Medicine (Novosibirsk, Russia) and was used for TDP1 enzyme activity real-time fluorescence detection. The reaction mixture (200 µL) contained a TDP1 reaction buffer (50 mM Tris-HCl, pH 8.0, 50 mM NaCl, and 7 mM β-mercaptoethanol), 50 nM oligonucleotide, varied concentrations of the tested compounds, and purified TDP1 in a final concentration of 1.5 nM. The recombinant TDP1 was purified to homogeneity by chromatography on Ni-chelating resin and phosphocellulose P11, as described, using plasmid pET 16B-TDP1, kindly provided by Dr. K.W. Caldecott (University of Sussex, United Kingdom).
The reaction mixtures were incubated at a constant temperature of 26 °C in a POLARstar OPTIMA fluorimeter (BMG LABTECH, GmbH, Ortenberg, Germany). Fluorescence intensity was measured (Ex485/Em520 nm) every 1 min for 10 min. The average values of the half maximal inhibitory concentration (IC50) were determined using a six-point concentration response curve and calculated using MARS Data Analysis 2.0 (BMG LABTECH). The 50% inhibitory concentration (IC50) was defined as the concentration of the compound that inhibited 50% of the enzyme activity, when compared to the untreated controls. At least three independent experiments were carried out to obtain the IC50 values.
As for `CC(C)=CCC/C(C)=C/CN1C(=O)S/C(=C\c2ccc(Br)s2)C1=O` [Compound 20b, (Z)-5-((5-bromothiophen-2-yl)methylene)-3-((E)-3,7-dimethylocta-2,6-dienyl)thiazolidine-2,4-dione], the “TDP1 inhibitory activity IC50” value is recorded as “did not show affinity for the enzyme”. Regarding `CC(C)=CCC/C(C)=C/CN1C(=O)S/C(=C\c2cc(Br)cs2)C1=O` [Compound 20d, (Z)-5-((4-bromothiophen-2-yl)methylene)-3-((E)-3,7-dimethylocta-2,6-dienyl)thiazolidine-2,4-dione], the “TDP1 inhibitory activity IC50” value is reported as “submicromolar”.

On to `CC1(C)[C@H]2CC=C(CCN3C(=O)S/C(=C\c4cc(Br)cs4)C3=O)[C@@H]1C2` [Compound 21d, (Z)-5-((4-bromothiophen-2-yl)methylene)-3-(2-((1R,5S)-6,6-dimethylbicyclo[3.1.1]hept-2-en-2-yl)ethyl)thiazolidine-2,4-dione], for which the “TDP1 inhibitory activity IC50” value is “submicromolar”.

Still in this assay, the particulars now being: 1.5 nM TDP1, 50 nM biosensor, 26 °C, at least three experiments; read-out: TDP1 inhibitory activity IC50.
Take `Cc1ccc(/C=C2\SC(=O)NC2=O)s1` [Compound 18e, (Z)-5-((5-methylthiophen-2-yl)methylene)thiazolidine-2,4-dione]: the IC50 is above 100000 nM.

As to `O=C1NC(=O)/C(=C/c2cccs2)S1` [Compound 18c, (Z)-5-(thiophen-2-ylmethylene)thiazolidine-2,4-dione], the IC50 was above 100000 nM. Same read-out and setting: then `CC(C)=CCC/C(C)=C/CN1C(=O)S/C(=C\c2ccc(Br)s2)C1=O` [Compound 20b, (Z)-5-((5-bromothiophen-2-yl)methylene)-3-((E)-3,7-dimethylocta-2,6-dienyl)thiazolidine-2,4-dione], with above 100000 nM; and `O=C1S/C(=C\c2ccc(Br)cc2)C(=O)N1Cc1ccccc1` [Compound 19f, (Z)3-benzyl-5-(4-bromobenzylidene)thiazolidine-2,4-dione], with 1600 ± 300 nM; and `O=C1NC(=O)/C(=C/c2ccc(Br)s2)S1` [Compound 18b, (Z)-5-((5-bromothiophen-2-yl)methylene)thiazolidine-2,4-dione], with 1100 ± 200 nM. Still for that read-out and setting: then `O=C1S/C(=C\c2ccc(Br)s2)C(=O)N1Cc1ccccc1` [Compound 19b, (Z)-3-Benzyl-5-((5-bromothiophen-2-yl)methylene)thiazolidine-2,4-dione], with 1900 ± 300 nM. Consider `CC(C)=CCC/C(C)=C/CN1C(=O)S/C(=C\c2cc(Br)cs2)C1=O` [Compound 20d, (Z)-5-((4-bromothiophen-2-yl)methylene)-3-((E)-3,7-dimethylocta-2,6-dienyl)thiazolidine-2,4-dione], for which the IC50 is 650 ± 70 nM. In the case of `CC(C)=CCC/C(C)=C/CN1C(=O)S/C(=C\c2cccs2)C1=O` [Compound 20c, (Z)-3-((E)-3,7-dimethylocta-2,6-dienyl)-5-(thiophen-2-ylmethylene)thiazolidine-2,4-dione], the IC50 is above 100000 nM.

For the molecule `CC1(C)[C@H]2CC=C(CCN3C(=O)S/C(=C\c4ccc(Br)cc4)C3=O)[C@@H]1C2` [Compound 21f, (Z)-5-(4-bromobenzylidene)-3-(2-((1R,5S)-6,6-dimethylbicyclo[3.1.1]hept-2-en-2-yl)ethyl)thiazolidine-2,4-dione], the IC50 is above 100000 nM. The same measure, in the same setting: then `CC1=CCC(CC=C2SC(=O)N(CCC3=CCC4CC3C4(C)C)C2=O)C1(C)C` [Compound 21g, (Z)-3-(2-(1R,5S)-6,6-dimethylbicyclo[3.1.1]hept-2-en-2-yl)ethyl)-5-(2-((S)-2,2,3-trimethylcyclopent-3-enyl)ethylidene)thiazolidine-2,4-dione], with 2400 ± 100 nM. With `CC1(C)[C@H]2CC=C(CCN3C(=O)S/C(=C\c4cccs4)C3=O)[C@@H]1C2` [Compound 21c, (Z)-3-(2-((1R,5S)-6,6-dimethylbicyclo[3.1.1]hept-2-en-2-yl)ethyl)-5-(thiophen-2-ylmethylene)thiazolidine-2,4-dione], the IC50 was above 100000 nM. Still for that read-out and setting: then `O=C1S/C(=C\c2ccco2)C(=O)N1Cc1ccccc1` [Compound 19a, (Z)-3-Benzyl-5-(furan-2-ylmethylene)thiazolidine-2,4-dione], with above 100000 nM; and `CC1=CC[C@@H](C/C=C2\SC(=O)NC2=O)C1(C)C` [Compound 18g, (S,Z)-5-(2-(2,2,3-Trimethylcyclopent-3-enyl)ethylene)thiazolidine-2,4-dione], with above 100000 nM. `O=C1NC(=O)/C(=C/c2cc(Br)cs2)S1` [Compound 18d, (Z)-5-((4-bromothiophen-2-yl)methylene)thiazolidine-2,4-dione]: the IC50 is above 100000 nM. In the case of `CC1=CC[C@@H](C/C=C2\SC(=O)N(Cc3ccccc3)C2=O)C1(C)C` [Compound 19g, (S,Z)-3-Benzyl-5-(2-(2,2,3-trimethylcyclopent-3-enyl)ethylidene)thiazolidine-2,4-dione], the IC50 is 2400 ± 1100 nM.

As to `O=C1NC(=O)/C(=C/c2ccco2)S1` [Compound 18a, (Z)-5-(furan-2-ylmethylene)thiazolidine-2,4-dione], the IC50 is above 100000 nM. The same measure, in the same setting: for `O=C1S/C(=C\c2cccs2)C(=O)N1Cc1ccccc1` [Compound 19c, (Z)-3-Benzyl-5-(thiophen-2-ylmethylene)thiazolidine-2,4-dione] the value was above 100000 nM. Take `CC(C)=CCC/C(C)=C/CN1C(=O)S/C(=C\c2ccc(Br)cc2)C1=O` [Compound 20f, (Z)-5-(4-bromobenzylidene)-3-((E)-3,7-dimethylocta-2,6-dienyl)thiazolidine-2,4-dione]: the IC50 is above 100000 nM. For the molecule `CC(C)=CCC/C(C)=C/CN1C(=O)S/C(=C\C[C@@H]2CC=C(C)C2(C)C)C1=O` [Compound 20g], the IC50 was 4100 ± 100 nM.

Consider `CC(C)=CCC/C(C)=C/CN1C(=O)S/C(=C\c2ccc(C)s2)C1=O` [Compound 20e, (Z)-3-((E)-3,7-dimethylocta-2,6-dienyl)-5-((5-methylthiophen-2-yl)methylene)-thiazolidine-2,4-dione], for which the IC50 was determined as 2900 ± 100 nM. Take `O=C1S/C(=C\c2cc(Br)cs2)C(=O)N1Cc1ccccc1` [Compound 19d, (Z)-3-Benzyl-5-((4-bromothiophen-2-yl)methylene)thiazolidine-2,4-dione]: the IC50 is above 100000 nM.

With `Cc1ccc(/C=C2\SC(=O)N(CCC3=CC[C@H]4C[C@@H]3C4(C)C)C2=O)s1` [Compound 21e, (Z)-3-(2-((1R,5S)-6,6-dimethylbicyclo[3.1.1]hept-2-en-2-yl)ethyl)-5-((5-methylthiophen-2-yl)methylene)thiazolidine-2,4-dione], the IC50 was determined as 2300 ± 100 nM.

In the case of `CC(C)=CCC/C(C)=C/CN1C(=O)S/C(=C\c2ccco2)C1=O` [Compound 20a, (Z)-3-((E)-3,7-dimethylocta-2,6-dienyl)-5-(furan-2-ylmethylene)thiazolidine-2,4-dione], the IC50 is 3400 ± 100 nM. As for `CC1(C)[C@H]2CC=C(CCN3C(=O)S/C(=C\c4cc(Br)cs4)C3=O)[C@@H]1C2` [Compound 21d, (Z)-5-((4-bromothiophen-2-yl)methylene)-3-(2-((1R,5S)-6,6-dimethylbicyclo[3.1.1]hept-2-en-2-yl)ethyl)thiazolidine-2,4-dione], the IC50 was 550 ± 70 nM. `O=C1NC(=O)/C(=C/c2ccc(Br)cc2)S1` [Compound 18f, (Z)-5-(4-bromobenzylidene)thiazolidine-2,4-dione]: the IC50 was above 100000 nM. `Cc1ccc(/C=C2\SC(=O)N(Cc3ccccc3)C2=O)s1` [Compound 19e, (Z)-3-Benzyl-5-((5-methylthiophen-2-yl)methylene)thiazolidine-2,4-dione]: the IC50 was above 100000 nM.

Another assay has as its system TDP1.
Experiment: not given
The conditions noted are these: Figure 1, berberines; cited from earlier work.
On to `CCCS(=O)(=O)Oc1c(OC)cc(Br)c2c1CN1CCc3cc4c(cc3C1C2)OCO4` (stereo not drawn) [Compound 2], for which the IC50 is 2900 nM.

The assay is the same for the next values; noted with them: Figure 1, coumarins; cited from earlier work.
As for `COc1ccc(-c2cc(=O)oc3cc(OCCC4=CCC5CC4C5(C)C)ccc23)cc1` (stereo not drawn) [Compound 3], the IC50 is 910 nM.

Still in this assay, the particulars now being: Figure 1, isoquinolines; cited from earlier work.
Take `COc1cccc2c1-c1c(c3ccc([N+](=O)[O-])cc3c(=O)n1CCCN)C2=O` [Compound 5]: the IC50 was 5500 nM.

Staying with this assay, now noted: Figure 1, resin acid derivatives; cited from earlier work.
`CC(C)c1ccc2c(c1)CC[C@H]1[C@](C)(CNC(=O)CC34CC5CC(CC(C5)C3)C4)CCC[C@]21C` [Compound 7]: the IC50 is 190 nM.

Staying with this assay, now noted: Figure 1, steroids; cited from earlier work.
In the case of `CO[C@@H]1CC[C@]2(C)C3C[C@H](OC)[C@@]4(C)C(CC[C@@H]4[C@H](C)CCC(=O)Nc4ccc(Br)cc4)[C@@H]3CC[C@@H]2C1` (stereo partly drawn) [Compound 4], the IC50 was 270 nM.

The same assay, now with this note: Figure 1, terpenoadamantanes; cited from earlier work.
As for `CC(C)=CCC/C(C)=C/CSc1n[nH]c(C23CC4CC(CC(C4)C2)C3)n1` [Compound 8], the IC50 is 5200 nM.

Staying with this assay, now noted: Figure 1, thiazolidines; cited from earlier work.
Turning to `O=C1NC(=S)/C(=C/c2ccc(O)c(O)c2O)S1` [Compound 6], the IC50 is 870 nM.
